This is an account of results in patent publication US9073862B2, “Substituted 2-oxy-quinoline-3-carboxamides as KCNQ2/3 modulators” (Grünenthal GmbH, priority 2010, dated 2015).

For assay [1], the system named is withdrawal reflex of the rat tail (tail flick) in response to a radiant heat beam. The experiment in a line: Low-intensity tail flick test (rat). Format: in vivo. Conditions: po, peroral; for ED50: at time of maximum efficacy. Here is the method: Method II. Low-Intensity Tail Flick Test (Rat)
In the low-intensity tail flick test, the determination of the antinociceptive effect of the compounds according to the invention towards an acute noxious thermal stimulus is carried out by measuring the withdrawal reflex of the rat tail (tail flick) in response to a radiant heat beam (analgesia meter; model 2011 of the company Rhema Labortechnik, Hofheim, Germany) according to the method described by D'Amour and Smith (J. Pharm. Exp. Ther. 72, 74 79 (1941). To this end, the rats were placed in a plexiglas restrainer, and a low-intensity radiant heat beam (48° C.) was focused onto the dorsal surface of the tail root. The stimulus intensity was adjusted to result in a mean pre-drug control withdrawal latency of about 7 s, thus also allowing a supraspinal modulation of the spinally mediated acute nociceptive reflex. A cutoff time of 30 s was applied to avoid tissue damage. Male Sprague-Dawley rats (Janvier, Le Genest St. Isle, Frankreich) with weights of 200-250 g were used. 10 rats were used per group. Before administration of a compound according to the invention, the animals were pre-tested twice in the course of five minutes and the mean of these measurements was calculated as the pre-test mean. The antinociceptive effect was determined at 20, 40 and 60 min after peroral compound administration. The antinociceptive effect was calculated based on the increase in the tail withdrawal latency according to the following formula and is expressed as percentage of the maximum possible effect (MPE [%]): MPE=[(T1−T0)/(T2−T0)]*100
In this, T0 is the control latency time before and T1 the latency time after administration of the compound, T2 is the cutoff time and MPE is the maximum possible effect. Employing variant analysis (repeated measures ANOVA) allowed testing of statistically significant differences between the compounds according to the invention and the vehicle group. The significance level was set to p≦0.05. To determine the dose dependency, the particular compound according to the invention was administered in 3-5 logarithmically increasing doses, including a threshold dose and a maximum effective dose, and the ED50 values were determined with the aid of regression analysis. The ED50 calculation was performed at the time of maximum efficacy (usually 20 min after administration of the compounds).
A general note: Hot-plate and tail-flick tests time the reaction to a heat stimulus.

The target in another assay is T1, KCNQ2/3 channels (Homo sapiens, UniProt O43525+O43526).
T1 construct: expressed in transfected cells; host or cells: CHO-K1
The experiment in a line: Fluorescence assay using a voltage sensitive dye (fluorimetry). Type of assay: cell-based. Conditions: CHO-K1 cells expressing KCNQ2/3 channels; for Emax: relative to retigabine = 100%, read-out: Fluorimetry % efficacy (retigabine = 100%). Here is the method: Method I. Fluorescence Assay Using a Voltage Sensitive Dye (Fluorimetry)
[…] CHO-K1 cells expressing KCNQ2/3 channels are cultivated adherently at 37° C., 5% CO2 and 95% humidity in cell culture bottles (e.g. 80 cm^2 TC flasks, Nunc) with DMEM-high glucose (Sigma Aldrich, D7777) including 10% FCS (PAN Biotech, e.g. 3302-P270521) or alternatively MEM Alpha Medium (1×, liquid, Invitrogen, #22571), 10% fetal calf serum (FCS) (Invitrogen, #10270-106, heat-inactivated) and the necessary selection antibiotics.
Before being sown out for the measurements, the cells are washed with 1×DPBS buffer Ca^2+/Mg^2+-free (e.g. Invitrogen, #14190-094) and detached from the bottom of the culture vessel by using Accutase (PAA Laboratories, #L11-007) (incubation with Accutase for 15 min at 37° C.). The cell number is determined using a CASY™ cell counter (TCC, Schärfe System). Depending on the optimal density for each individual cell line, 20,000-30,000 cells/well/100 μl are seeded onto 96-well Corning™ CellBIND™ assay plates (Flat Clear Bottom Black Polystyrene Microplates, #3340). Freshly seeded cells are then left to settle for one hour at room temperature, followed by incubation for 24 hours at 37° C., 5% CO2 and 95% humidity.
The voltage-sensitive fluorescent dye from the Membrane Potential Assay Kit (Red™ Bulk format part R8123 for FLIPR, MDS Analytical Technologies™) is prepared by dissolving the contents of one vessel Membrane Potential Assay Kit Red Component A in 200 ml of extracellular buffer (ES buffer, 120 mM NaCl, 1 mM KCl, 10 mM HEPES, 2 mM CaCl2, 2 mM MgCl2, 10 mM glucose; pH 7.4). After removal of the nutrient medium, the cells are washed once with 200 μl of ES buffer, then loaded for 45 min at room temperature in 100 μl of dye solution in the dark.
Fluorescence measurements are carried out in a BMG Labtech FLUOstar™, BMG Labtech NOVOstar™ or BMG Labtech POLARstar™ instrument (525 nm excitation, 560 nm emission, Bottom Read mode). After incubation with the dye, 50 μl of the test substances in the desired concentrations, or 50 μl of ES buffer for control purposes, are applied to the wells of the assay plate and incubated for 30 min at room temperature while being shielded from light. The fluorescence intensity of the dye is then measured for 5 min and the fluorescence value F1 of each well is thus determined at a given, constant time. 15 μl of a KCl solution are then added to each well (final concentration of potassium ions 92 mM). The change in fluorescence intensity is subsequently monitored until all the relevant values have been obtained (mainly 5-30 min). At a given time post KCl application, a fluorescence value F2 is determined, in this case at the time of the fluorescence peak.
For calculation, the fluorescence intensity F2 is corrected for the fluorescence intensity F1, and the activity (ΔF/F) of the target compound on the potassium channel is determined as follows:
In order to determine whether a substance has agonistic activity,
[formula] can be related to
[formula] of control wells.
[formula] is determined by adding to the well only the buffer solution instead of the test substance, determining the value F1K of the fluorescence intensity, adding the potassium ions as described above, and measuring a value F2K of the fluorescence intensity. F2K and F1K are then calculated as follows: […]
A substance has an agonistic activity on the potassium channel if
[formula] is greater than
Independently of the comparison of
[formula] it is possible to conclude that a target compound has agonistic activity if
[formula] increases dose dependently.
Calculations of EC50 and IC50 values are carried out with the aid of ‘Prism v4.0’ software (Graph Pad Software™).

Where [2] appears, read: read-out: Low intensity tail flick, rat, peroral, MPE (dose).

As a reminder, the EC50 is the concentration needed to bring the measured effect to its halfway point. The low end stands for a more potent agent, the high end for a less potent agent. With `Cc1c(C(=O)NCc2cccc(F)c2)c(OCC(F)(F)F)nc2cc(C(F)(F)F)ccc12` [Example 50, N-[(3-fluorophenyl)-methyl]-4-methyl-2-(2,2,2-trifluoro-ethoxy)-7-(trifluoromethyl)-quinoline-3-carboxylic acid amide], in assay [1] (setting [2]), the inhibition in vivo at 10 mg/kg turned out to be 24%. At KCNQ2/3 channels, a half-maximal response (EC50) required 25 nM and the Emax turned out to be 108%.

On to `CCOc1nc2cc(C(F)(F)F)ccc2c(C)c1C(=O)NCc1cccc(C)c1` [Example 22, 2-ethoxy-4-methyl-N-(m-tolyl-methyl)-7-(trifluoromethyl)-quinoline-3-carboxylic acid amide], for which the inhibition in vivo at 10 mg/kg in assay [1] (setting [2]) was found to be 20%. For the same molecule, on KCNQ2/3 channels, a half-maximal effect (EC50) was put at 58 nM and the Emax worked out at 111%.

With `CCOc1nc2cc(C#N)ccc2c(C)c1C(=O)NCc1ccc(F)cc1` [Example 35, 7-cyano-2-ethoxy-N-[(4-fluorophenyl)-methyl]-4-methyl-quinoline-3-carboxylic acid amide], in assay [1] (dose 6.81 mg/kg, read-out: Low intensity tail flick, rat, peroral, MPE (dose)), the inhibition in vivo at 6.81 mg/kg turned out to be 32%. Besides, on KCNQ2/3 channels, the EC50 was 82 nM and the Emax is 112%.

For the molecule `CCOc1nc2cc(C(F)(F)F)ccc2c(C)c1C(=O)NCc1cccc(F)c1` [Example 6, 2-ethoxy-N-[(3-fluorophenyl)-methyl]-4-methyl-7-(trifluoromethyl)-quinoline-3-carboxylic acid amide], the inhibition in vivo at 4.64 mg/kg in assay [1] (setting [2]) turned out to be 67%. In addition, on KCNQ2/3 channels, the EC50 was 58 nM and the Emax was 132%.

For orientation: ED50 means the dose that gives a 50% effect, or the effect in half of the subjects. Higher therefore signals a need for a large dose. As for `COCCOc1nc2cc(C(F)(F)F)ccc2c(C)c1C(=O)NCc1cccc(F)c1` [Example 7, N-[(3-fluorophenyl)-methyl]-2-(2-methoxy-ethoxy)-4-methyl-7-(trifluoromethyl)-quinoline-3-carboxylic acid amide], the median effective dose (ED50) in assay [1] was 10 mg/kg. Further, on KCNQ2/3 channels, a half-maximal effect (EC50) was put at 96 nM and the Emax came to 92%.

`COc1nc2cc(C(F)(F)F)ccc2c(C)c1C(=O)NCc1cccc(F)c1` [Example 4, N-[(3-fluorophenyl)-methyl]-2-methoxy-4-methyl-7-(trifluoromethyl)-quinoline-3-carboxylic acid amide] returned an ED50 in assay [1] of 6.7 mg/kg. At KCNQ2/3 channels, a half-maximal effect (EC50) was put at 73 nM and the Emax was 105%.

As for `CCOc1nc2cc(C(F)(F)F)ccc2c(OC)c1C(=O)NCc1cccc(F)c1` [Example 12, 2-ethoxy-N-[(3-fluorophenyl)-methyl]-4-methoxy-7-(trifluoremethyl)-quinoline-3-carboxylic acid amide], in assay [1] (setting [2]), the inhibition in vivo at 4.64 mg/kg came to 27%. For the same molecule, on KCNQ2/3 channels, a half-maximal effect (EC50) was put at 104 nM and the Emax was 170%.

For the molecule `COc1nc2cc(C(F)(F)F)ccc2c(OC)c1C(=O)NCc1cccc(F)c1` [Example 13, N-[(3-fluorophenyl)-methyl]-2,4-dimethoxy-7-(trifluoromethyl)-quinoline-3-carboxylic acid amide], the inhibition in vivo at 10 mg/kg in assay [1] (setting [2]) was 10%. Also, on KCNQ2/3 channels, it took 136 nM to reach a half-maximal effect (EC50) and the Emax was 147%.

Consider `COc1nc2cc(C(F)(F)F)ccc2c(C)c1C(=O)NCc1cc(F)ccc1O` [Example 44, N-[(5-fluoro-2-hydroxy-phenyl)-methyl]-2-methoxy-4-methyl-7-(trifluoromethyl)-quinoline-3-carboxylic acid amide], for which, at KCNQ2/3 channels, the EC50 is 79 nM and the Emax stood at 173%.

Consider `COc1nc2ccccc2c(C(F)(F)F)c1C(=O)NCc1cccc(F)c1` [Example 51, N-[(3-fluorophenyl)-methyl]-2-methoxy-4-(trifluoromethyl)-quinoline-3-carboxylic acid amide], for which the Emax at KCNQ2/3 channels is 40%.

Regarding `COc1cc(F)cc(CNC(=O)c2c(OC)nc3cc(C(F)(F)F)ccc3c2C)c1` [Example 40, N-[(3-fluoro-5-methoxy-phenyl)-methyl]-2-methoxy-4-methyl-7-(trifluoromethyl)-quinoline-3-carboxylic acid amide], the Emax on KCNQ2/3 channels stood at 15%.

On to `CCOc1nc2cc(C(F)(F)F)ccc2c(C)c1C(=O)NCc1cccs1` [Example 2, 2-ethoxy-4-methyl-N-(thiophene-2-yl-methyl)-7-(trifluoromethyl)-quinoline-3-carboxylic acid amide], for which, at KCNQ2/3 channels, the midpoint of the response, the EC50, lay at 64 nM and the Emax came out at 175%.

For the molecule `COc1nc2cc(C(F)(F)F)ccc2c(C)c1C(=O)NCc1cccc(F)c1OC` [Example 39, N-[(3-fluoro-2-methoxy-phenyl)-methyl]-2-methoxy-4-methyl-7-(trifluoromethyl)-quinoline-3-carboxylic acid amide], the Emax on KCNQ2/3 channels was determined as 10%.

As to `COc1ccc(F)cc1CNC(=O)c1c(OC)nc2cc(C(F)(F)F)ccc2c1C` [Example 41, N-[(5-fluoro-2-methoxy-phenyl)-methyl]-2-methoxy-4-methyl-7-(trifluoromethyl)-quinoline-3-carboxylic acid amide], on KCNQ2/3 channels, the EC50 is 1540 nM and the Emax worked out at 140%.

Consider `COc1nc2cc(C(F)(F)F)ccc2c(C)c1C(=O)NCc1cccc(C)c1` [Example 21, 2-methoxy-4-methyl-N-(m-tolyl-methyl)-7-(trifluoromethyl)-quinoline-3-carboxylic acid amide], for which, on KCNQ2/3 channels, the EC50 came to 67 nM and the Emax was found to be 71%.

Regarding `COc1nc2cc(C#N)ccc2c(C)c1C(=O)NCc1ccc(F)cc1` [Example 38, 7-cyano-N-[(4-fluorophenyl)-methyl]-2-methoxy-4-methyl-quinoline-3-carboxylic acid amide], on KCNQ2/3 channels, a half-maximal effect (EC50) was put at 143 nM and the Emax worked out at 74%.

Consider `CCOc1nc2cc(C(F)(F)F)ccc2c(C)c1C(=O)NCCCC(C)(C)C` [Example 30, N-(4,4-dimethyl-pentyl)-2-ethoxy-4-methyl-7-(trifluoromethyl)-quinoline-3-carboxylic acid amide], for which, at KCNQ2/3 channels, the response was half-maximal at 50 nM (EC50) and the Emax amounted to 214%.
